Measurements: patent US20190117667A1, “ANTICANCER ACTIVITY OF PLATINUM(II) TETRASELENONE COMPLEXES” (King Fahd University of Petroleum and Minerals, priority 2017, published 2019)
“And” between values parts separate entries of the source, which are not always exact repeats. Equal values may be shown once. Read-outs that look alike come from different tables or passages of the source.

What was measured:
[1] = tested on: prostate carcinoma (22Rv1) cells; experiment: MTT in vitro cytotoxicity assay, 22Rv1; format: cell-based, human; settings: for IC50: triplicate, tested up to 50 μM, read-out: In vitro cytotoxicity IC50 ± S.D., 22RvI
Description: (§1) All the human cancer cell lines were purchased from European Collection of Cell Cultures (ECACC). The cells were cultivated according to the manufacturer's manuals and maintained in an atmosphere containing 5% CO2 in a humidified incubator at 37° C. The experimental procedure was performed according to the literature. See R. […], PLoS One, 2014, 9(9), e107373, incorporated herein by reference in its entirety. All the experiments were conducted in triplicate. The results were expressed as ICso values along with standard deviations (SD). The significance of the differences between the compared groups of results was assessed by the ANOVA analysis, with p<0.05 considered to be significant (QC Expert 3.2, Statistical software, TriloByte Ltd.). See QC Expert 3.2, Statistical software, TriloByte Ltd., Pardubice, Czech Republic. 2009, incorporated herein by reference in its entirety.

[2] = tested on: human ovarian carcinoma A2780 cells; experiment: MTT in vitro cytotoxicity assay, A2780; format: cell-based; settings: triplicate, tested up to 50 μM
Description: as §1

[3] = tested on: human breast adenocarcinoma (MCF7) cells; experiment: MTT in vitro cytotoxicity assay, MCF7; format: cell-based; settings: triplicate, tested up to 50 μM, read-out: In vitro cytotoxicity IC50 ± S.D., MCF7
Description: as §1

[4] = tested on: ovarian carcinoma resistant to cisplatin (A2780R) cells; experiment: MTT in vitro cytotoxicity assay, A2780R; format: cell-based, human; settings: triplicate, tested up to 50 μM, read-out: In vitro cytotoxicity IC50 ± S.D., A2780R
Description: as §1

testicular cancer = settings: cited from earlier work
[5] = ESI-MS stability and interaction with L-cysteine and reduced glutathione; format: physicochemical; settings: methanol:water (1:1, v/v), complex 10 μM, Cys 290 μM, GSH 6 μM, immediately vs 24 h after preparation
Description: In order to describe the behavior of complexes in different media, i.e. to better understand their stability in protogenic media and interactions of the complexes with sulfur-containing biomolecules under physiological conditions, mass spectrometric experiments involving the interacting systems, containing the mixture of L-cysteine and reduced L-glutathione, were performed.
The electrospray-ionization mass spectrometry (ESI-MS) was used to perform the interaction experiments of the selected two cytotoxic platinum(II) complexes 4 and 5 using the ThermoLCQ Fleet Ion Trap mass spectrometer, in positive ionization mode. […] The measured solutions were injected into the mass spectrometer using the HPLC autosampler (Ultimate 3000, Dionex) in 10 μL spikes. The mass spectra were recorded in the range of 50-1400 m/z. […]
The stability in methanol:water (1:1, v/v) solutions as compared to the pure methanol and interactions of complexes in methanol:water (1:1, v/v)solutions containing the complexes 4 and 5 at the final concentrations of 10 μM and the physiological levels of L-cysteine (Cys) and L-glutathione (GSH), at 290, and 6 μM concentration, respectively, were measured by ESI+MS immediately after preparation and 24 h after preparation. […] The spectra measured immediately after preparation contained mostly the ionic species similar to those identified in reference methanol solutions. […]

[6] = Solubility in deuterated solvents for 195Pt NMR; format: physicochemical; settings: for 195Pt NMR spectra
Description: The FTIR spectra of the ligands and their platinum(II) complexes were carried out on a Nicolet 6700 FTIR spectrophotometer using KBr pellets in the range between 4000 to 400 cm^−1. The ^1H, ^13C and ^77Se NMR spectra were recorded in DMSO-d6 on a Jeol JNM 500 NMR spectrophotometer operating at 500.01, 125.65 and 95.35 MHz respectively. The spectral conditions were; 32 K data points, 0.963 s acquisition time, 3.2 s pulse delay and a 5.75 μs pulse width for ^1H NMR, and 32 K data points, 0.963 s acquisition time, 2.0 s pulse delay and a 5.12 μs pulse width for ^13C NMR. The chemical shifts were measured relative to TMS. The ^77Se NMR chemical shifts were recorded relative to external reference (NaHSeO3 in D2O) at 1308.00 ppm, using 2.0 s pulse delay and using 0.311 s acquisition time. The ^195Pt NMR spectra were recorded in methanol-d4 using a Varian 400 MHz NMR spectrometer at 298 K. The spectra were referenced with respect to potassium tetrachloridoplatinate(II) in D2O at 0 ppm.
The ^195Pt NMR spectroscopy was also employed for thorough characterization of the prepared complexes, as the number of signals and their chemical shift in the ^195Pt NMR spectra provide efficient evidence about the purity and, also generally, the coordination environment of the metal. […]

[7] = read-out: In vitro cytotoxicity IC50 ± S.D., A2780

CCN1CCNC1=[Se].CCN1CCNC1=[Se].CCN1CCNC1=[Se].CCN1CCNC1=[Se].[Cl-].[Cl-].[Pt+2] [Complex 3, [Pt(N-ethylimidazolidine-2-selenone)4]Cl2]
IC50 [1]: > 50 µM | IC50 [2, 7]: > 50 µM | IC50 [3]: > 50 µM | IC50 [4]: > 50 µM

N.N.[Cl][Pt][Cl] [Cisplatin]
Cure rate in testicular cancer (testicular cancer; treatment of testicular cancer): over 90% | Cure rate in testicular cancer, tumors discovered early (testicular cancer; when tumors are discovered early): ~100%

CC(C)N1CCNC1=[Se].CC(C)N1CCNC1=[Se].CC(C)N1CCNC1=[Se].CC(C)N1CCNC1=[Se].[Cl-].[Cl-].[Pt+2] [Complex 5, [Pt(N-isopropylimidazolidine-2-selenone)4]Cl2]
IC50 [1]: > 50 µM | IC50 ([2]; listed as 5, read-out: In vitro cytotoxicity IC50 ± S.D., A2780): 30.8 µM | IC50 [2, 7]: 44.7 µM | IC50 [3]: > 50 µM | IC50 [4]: > 50 µM | Ligand exchange reactions with L-cysteine and reduced glutathione [5]: relatively rapid

CCCN1CCNC1=[Se].CCCN1CCNC1=[Se].CCCN1CCNC1=[Se].CCCN1CCNC1=[Se].[Cl-].[Cl-].[Pt+2] [Complex 4]
Cytotoxicity against 22Rv1 cells (in words) [1]: some cytotoxicity | IC50 [1]: 46.2 ± 3.8 µM | IC50 [2, 7]: 44.7 µM and 30.8 µM | IC50 [3]: > 50 µM | IC50 [4]: > 50 µM | Ligand exchange reactions with L-cysteine and reduced glutathione [5]: relatively rapid

NC(N)=[Se].NC(N)=[Se].NC(N)=[Se].NC(N)=[Se].[Cl-].[Cl-].[Pt+2] [Complex 1]
Solubility in methanol-d4 and deuterated N,N-dimethylformamide [6]: insufficient solubility

[Cl-].[Cl-].[Pt+2].[Se]=C1NCCCCN1.[Se]=C1NCCCCN1.[Se]=C1NCCCCN1.[Se]=C1NCCCCN1 [Complex 7]
IC50 [1]: > 50 µM | IC50 [2, 7]: > 50 µM | IC50 [3]: > 50 µM | IC50 [4]: > 50 µM

[Cl-].[Cl-].[Pt+2].[Se]=C1NCCCN1.[Se]=C1NCCCN1.[Se]=C1NCCCN1.[Se]=C1NCCCN1 [Complex 6]
IC50 [1]: > 50 µM | IC50 [2, 7]: > 50 µM | IC50 [3]: > 50 µM | IC50 [4]: > 50 µM

[Cl-].[Cl-].[Pt+2].[Se]=C1NCCN1.[Se]=C1NCCN1.[Se]=C1NCCN1.[Se]=C1NCCN1 [Complex 2]
IC50 [1]: > 50 µM | IC50 [2, 7]: > 50 µM | IC50 [3]: > 50 µM | IC50 [4]: > 50 µM | Solubility in methanol-d4 and deuterated N,N-dimethylformamide [6]: insufficient solubility
